Where no end group is shown, it is not given here.
Tests used:
[1] = tested on: BAK1 gene promoter / BAK1-GFP; test: Quantification of GFP in roots of pBAK1:BAK1-GFP plants; assay type: in vivo, Arabidopsis thaliana; conditions: 1 μM, 4 h
Method: Transgenic Arabidopsis plants were grown for 4 days in liquid medium and treated with 1 μM AtRALF1 for 4 h. After 4 h of agitation at room temperature, the intensity of GFP in the roots was analyzed by confocal microscopy (Olympus FV1000). Control plants were kept in a peptide-free medium. The GFP excitation wavelength was 488 nm, and the emission wavelength was 540 nm. Images were generated by a scanner depth of 7 μm. Ten slices per root were generated and compacted in one image. Image processing was performed using the Olympus FluoView software. An average of 20 seedlings were observed under the microscope in at least 3 different experiments using independent biological replicates.

[2] = tested on: AtPRP3, AtHRGP2, CPD and DWF4 genes; test: Expression of hormone-responsive genes (RT-PCR, qRT-PCR); assay type: in vivo, Arabidopsis thaliana; conditions: bak1-1, bak1-3, bak1-4 mutants, 1 μM, 1 h
Method: Arabidopsis plants were grown for 10 days in vertical plates and then treated in liquid medium containing 1 μM AtRALF1 for 1 h at room temperature. Control plants were incubated under identical conditions in a peptide-free medium. The total RNA was isolated from the roots of Arabidopsis plants using TRIzol reagent according to the manufacturer’s instructions (Life Technologies). The cDNA was synthesized using the ImProm-II Reverse Transcription System (Promega) and 1 μg of RNA. An aliquot of cDNA (1.5 μl) was used as the template in the PCR reaction, which was performed for 29 cycles, unless indicated otherwise, using gene-specific primers (S1 Table). The glyceraldehyde 3-phosphate dehydrogenase (GAPDH) gene was used as an internal control. All experiments were repeated at least three times with independent biological replicates. The data shown are from one representative experiment.
The qRT-PCR analysis was performed using 10-fold-diluted cDNA, Maxima SYBR Green Rox/qPCR Master Mix (Thermo Scientific) and a StepOne Real-Time PCR System (Applied Biosystems). The glyceraldehyde 3-phosphate dehydrogenase (GAPDH) gene was used as an internal control. […] The threshold cycle (CT) was determined by the instrument, and the ΔΔCT method was used to calculate the fold change in each gene. […] Three replicates were analyzed for each biological sample, and two biological samples were analyzed. […]

BAK1-GFP = test: Co-immunoprecipitation with microsomal fraction of N. benthamiana leaves expressing BAK1-GFP; assay type: binding, Arabidopsis thaliana; conditions: 600 nM peptide, 1 h, 4 °C, anti-GFP antibody
Method: This assay was performed as previously described with some modifications. The BAK1 coding region was amplified from Arabidopsis genomic cDNA using standard PCR with the primers BAK1 Fw and BAK1 Rv (S1 Table). To generate the p35S-BAK1:GFP plasmid, the fragment was cloned into the pENTR D-TOPO vector and later transferred to the pk7FWG2 vector [56]. Leaves from N. benthamiana plants were agroinfiltrated with p19 vector alone and p19 co-expressed with p35S-BAK1:GFP, as previously described. After 3 days, leaves were homogenized in extraction buffer [300 mM sucrose, 100 mM Tris-HCl pH 7.5, 25 mM EDTA, 25 mM NaF, 1 mM Na2MoO4, 1 mM PMSF, 1 mM DTT and protease inhibitor cocktail (Roche), pH 6.2 adjusted] and centrifuged at 1,000 g for 10 min at 4°C, and the supernatant was then centrifuged at 100,000 g for 50 min at 4°C to precipitate the microsomal pellet. The pellet was resuspended in the extraction buffer plus 0.5% Triton-X and incubated with 600 nM recombinant AtRALF1 or 600 nM RALF1(I6A) for 1 h at 4°C. The complexes were incubated with anti-GFP antibody (Santa Cruz Biotechnology) and Sepharose Beads plus protein A (Life Technologies) overnight at 4°C. […] The AtRALF1/BAK1-GFP complex bound to the beads was eluted with denaturing in 10 μl of 1X loading buffer (NuPAGE LDS buffer) at 95°C for 8 min, then analyzed by SDS-PAGE. The proteins were detected as previously described.

cell suspensions = conditions: cited from earlier work

AtRALF1: root-specific RALF isoform in Arabidopsis; recombinant peptide hormone produced in E. coli (ATTKYISYQSLKRNSVPCSRRGASYYNCQNGAQANPYSRGCSKIARCRS; ends and bridges not checked; cysteine pairing not given here)
BAK1-GFP fluorescent signal in roots [1]: quantitative increase in fluorescent signal in the roots | up-regulation of AtRALF1-inducible genes [2]: None of the AtRALF1-inducible genes were up-regulated | co-immunoprecipitation with BAK1-GFP (BAK1-GFP): co-immunoprecipitated when the anti-GFP antibody was used | alkalinization of the extracellular media (cell suspensions; ref [1],[11]): induces a rapid alkalinization of the extracellular media of cell suspensions | alkalinization of the extracellular medium (cell suspensions; ref [5]): alkalinizes the extracellular medium of cell suspensions
